Targets include PRKX (Homo sapiens, UniProt P51817); CLK2 (Homo sapiens, UniProt P49760); LRRK2(G2019S) (Homo sapiens, UniProt Q5S007, G2019S); PIK3CA(H1047Y) (Homo sapiens, UniProt P42336, H1047Y); HIPK1 (Homo sapiens, UniProt Q86Z02); KIT(V559D,T670I) (Homo sapiens, UniProt P10721, T670I/V559D); SGK2 (Homo sapiens, UniProt Q9HBY8); NEK11 (Homo sapiens, UniProt Q8NG66); TAOK3 (Homo sapiens, UniProt Q9H2K8); CDKL1 (Homo sapiens, UniProt Q00532); RET(V804M) (Homo sapiens, UniProt P07949, V804M); IGF1R (Homo sapiens, UniProt P08069); GRK7 (Homo sapiens, UniProt Q8WTQ7).

Common to all, as to experiment: biochemical
What all share (parameters): KINOMEscan active-site-directed competition binding panel, 468 kinases, percent of DMSO control at 1 uM
Common to all, as to conditions: KINOMEscan binding, percent of DMSO control; read-out: Ctrl%

Assay [1] deals with T1, ABL1(H396P)-phosphorylated (Homo sapiens, UniProt P00519, H396P).
T1 construct: phosphorylated

For assay [2], the target named is T2, ABL1(Y253F)-phosphorylated (Homo sapiens, UniProt P00519, Y253F).
T2 construct: phosphorylated

Another assay has as its target T3, BRK (Homo sapiens, UniProt Q13882).
T3 construct: gene PTK6

Another assay deals with T4, YSK4 (Homo sapiens, UniProt Q56UN5).
T4 construct: gene MAP3K19

Another assay deals with T5, ZAK (Homo sapiens, UniProt Q9NYL2).
T5 construct: gene MAP3K20

In the next assay the target is T6, SNARK (Homo sapiens, UniProt Q9H093).
T6 construct: gene NUAK2

In assay [3] the target is EGFR(L747-E749del, A750P) (Homo sapiens, UniProt P00533, A750P/DEL747-749).
The target in the next assay is T7, DLK (Homo sapiens, UniProt Q12852).
T7 construct: gene MAP3K12

The next assay addresses T8, PIP5K2B (Homo sapiens, UniProt P78356).
T8 construct: gene PIP4K2B

The next assay addresses T9, AMPK-alpha2 (Homo sapiens, UniProt P54646).
T9 construct: gene PRKAA2

Sequence of GRK7 (Q8WTQ7 whole entry): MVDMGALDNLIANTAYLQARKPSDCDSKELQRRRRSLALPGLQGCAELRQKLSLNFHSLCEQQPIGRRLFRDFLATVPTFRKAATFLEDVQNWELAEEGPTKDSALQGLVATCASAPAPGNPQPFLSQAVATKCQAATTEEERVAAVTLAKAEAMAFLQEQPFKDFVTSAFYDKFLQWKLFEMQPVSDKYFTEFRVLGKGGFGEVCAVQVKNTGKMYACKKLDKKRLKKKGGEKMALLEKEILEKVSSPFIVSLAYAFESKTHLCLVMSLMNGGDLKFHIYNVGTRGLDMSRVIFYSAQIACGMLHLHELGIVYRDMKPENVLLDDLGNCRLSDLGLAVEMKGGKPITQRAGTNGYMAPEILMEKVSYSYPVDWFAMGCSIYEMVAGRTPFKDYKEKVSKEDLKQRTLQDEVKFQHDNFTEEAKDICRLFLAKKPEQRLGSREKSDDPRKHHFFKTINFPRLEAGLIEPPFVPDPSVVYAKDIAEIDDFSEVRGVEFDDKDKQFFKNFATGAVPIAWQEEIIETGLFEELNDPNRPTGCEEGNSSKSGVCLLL
T7 sequence (Q12852 whole entry): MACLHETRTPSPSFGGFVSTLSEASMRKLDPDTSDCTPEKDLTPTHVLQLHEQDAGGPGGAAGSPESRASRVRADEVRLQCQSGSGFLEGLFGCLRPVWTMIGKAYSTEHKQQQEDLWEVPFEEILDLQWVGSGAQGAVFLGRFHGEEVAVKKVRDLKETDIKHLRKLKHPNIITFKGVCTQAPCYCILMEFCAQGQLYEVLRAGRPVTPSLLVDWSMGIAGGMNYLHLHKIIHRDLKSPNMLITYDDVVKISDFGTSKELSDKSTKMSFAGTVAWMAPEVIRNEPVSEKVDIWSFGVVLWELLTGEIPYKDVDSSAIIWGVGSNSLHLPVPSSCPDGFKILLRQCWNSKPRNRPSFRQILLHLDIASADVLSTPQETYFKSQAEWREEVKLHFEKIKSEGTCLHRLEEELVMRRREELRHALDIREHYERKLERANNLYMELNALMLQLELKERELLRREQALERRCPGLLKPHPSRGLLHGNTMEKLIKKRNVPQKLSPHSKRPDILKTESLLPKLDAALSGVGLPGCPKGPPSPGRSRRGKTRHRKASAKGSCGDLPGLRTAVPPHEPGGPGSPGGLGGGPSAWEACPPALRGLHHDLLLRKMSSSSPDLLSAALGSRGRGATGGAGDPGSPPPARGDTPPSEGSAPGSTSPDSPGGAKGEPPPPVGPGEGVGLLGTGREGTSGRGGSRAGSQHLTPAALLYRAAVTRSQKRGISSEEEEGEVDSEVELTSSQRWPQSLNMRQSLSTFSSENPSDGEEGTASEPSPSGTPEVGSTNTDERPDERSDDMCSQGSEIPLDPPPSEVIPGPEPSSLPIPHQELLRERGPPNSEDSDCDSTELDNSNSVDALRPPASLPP
T6 sequence (Q9H093 whole entry): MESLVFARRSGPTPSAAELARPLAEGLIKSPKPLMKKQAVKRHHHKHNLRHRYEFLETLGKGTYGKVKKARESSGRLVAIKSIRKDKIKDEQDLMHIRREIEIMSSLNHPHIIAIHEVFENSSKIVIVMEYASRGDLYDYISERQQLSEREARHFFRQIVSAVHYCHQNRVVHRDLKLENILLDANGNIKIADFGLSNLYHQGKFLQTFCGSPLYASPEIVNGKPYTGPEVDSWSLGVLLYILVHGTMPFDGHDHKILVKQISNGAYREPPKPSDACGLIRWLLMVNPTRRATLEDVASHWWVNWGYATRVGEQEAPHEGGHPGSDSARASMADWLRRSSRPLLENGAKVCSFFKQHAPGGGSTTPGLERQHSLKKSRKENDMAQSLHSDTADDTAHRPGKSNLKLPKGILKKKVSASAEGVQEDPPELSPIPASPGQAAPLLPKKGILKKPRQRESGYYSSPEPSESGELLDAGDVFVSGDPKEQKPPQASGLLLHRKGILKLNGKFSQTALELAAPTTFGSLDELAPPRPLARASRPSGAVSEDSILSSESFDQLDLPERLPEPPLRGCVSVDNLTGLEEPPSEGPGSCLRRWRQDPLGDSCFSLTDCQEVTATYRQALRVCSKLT
T3 sequence (Q13882 whole entry): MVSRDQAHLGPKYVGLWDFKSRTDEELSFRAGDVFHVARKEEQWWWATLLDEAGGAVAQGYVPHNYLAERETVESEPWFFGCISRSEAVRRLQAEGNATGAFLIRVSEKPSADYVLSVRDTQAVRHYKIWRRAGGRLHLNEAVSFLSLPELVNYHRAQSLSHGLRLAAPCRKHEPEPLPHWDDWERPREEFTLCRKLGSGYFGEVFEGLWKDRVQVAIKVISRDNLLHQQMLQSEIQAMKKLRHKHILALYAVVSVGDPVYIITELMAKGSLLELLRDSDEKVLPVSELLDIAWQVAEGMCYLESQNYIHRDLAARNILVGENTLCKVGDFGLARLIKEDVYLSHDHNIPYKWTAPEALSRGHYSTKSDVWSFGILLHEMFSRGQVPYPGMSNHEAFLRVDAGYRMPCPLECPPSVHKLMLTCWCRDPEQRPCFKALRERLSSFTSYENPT
Sequence of EGFR(L747-E749del, A750P) (P00533 with tags, fused parts or gaps DEL747-749/A750P): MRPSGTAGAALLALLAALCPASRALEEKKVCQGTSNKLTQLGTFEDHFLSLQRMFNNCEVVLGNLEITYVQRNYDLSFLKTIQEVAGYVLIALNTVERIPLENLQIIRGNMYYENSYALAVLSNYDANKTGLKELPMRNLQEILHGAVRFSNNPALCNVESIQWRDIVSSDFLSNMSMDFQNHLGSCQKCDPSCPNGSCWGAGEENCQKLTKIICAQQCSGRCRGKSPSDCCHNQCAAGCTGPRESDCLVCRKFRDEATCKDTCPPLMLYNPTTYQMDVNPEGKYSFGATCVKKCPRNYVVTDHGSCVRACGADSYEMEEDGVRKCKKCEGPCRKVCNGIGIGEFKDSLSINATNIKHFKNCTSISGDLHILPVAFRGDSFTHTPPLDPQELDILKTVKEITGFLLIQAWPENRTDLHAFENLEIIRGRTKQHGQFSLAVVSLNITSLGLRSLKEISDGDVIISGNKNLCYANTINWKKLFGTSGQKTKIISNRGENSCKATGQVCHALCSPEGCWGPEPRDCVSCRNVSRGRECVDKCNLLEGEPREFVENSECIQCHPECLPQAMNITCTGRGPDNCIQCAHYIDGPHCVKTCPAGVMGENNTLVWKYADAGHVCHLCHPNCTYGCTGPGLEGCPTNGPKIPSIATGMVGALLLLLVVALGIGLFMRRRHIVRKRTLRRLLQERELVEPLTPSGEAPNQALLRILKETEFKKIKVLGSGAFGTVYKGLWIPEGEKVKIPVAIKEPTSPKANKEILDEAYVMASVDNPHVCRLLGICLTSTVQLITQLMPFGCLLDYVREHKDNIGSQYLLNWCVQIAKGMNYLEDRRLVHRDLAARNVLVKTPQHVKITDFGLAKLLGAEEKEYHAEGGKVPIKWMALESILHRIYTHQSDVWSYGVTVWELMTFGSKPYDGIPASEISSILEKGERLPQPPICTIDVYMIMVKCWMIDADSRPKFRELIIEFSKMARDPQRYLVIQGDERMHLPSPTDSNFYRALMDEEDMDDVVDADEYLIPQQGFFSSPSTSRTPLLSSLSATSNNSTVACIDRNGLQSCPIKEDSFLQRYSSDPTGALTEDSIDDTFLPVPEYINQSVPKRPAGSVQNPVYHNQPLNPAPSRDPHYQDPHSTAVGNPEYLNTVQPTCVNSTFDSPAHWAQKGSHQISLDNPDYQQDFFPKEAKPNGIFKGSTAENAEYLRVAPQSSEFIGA
T4 sequence (Q56UN5 whole entry): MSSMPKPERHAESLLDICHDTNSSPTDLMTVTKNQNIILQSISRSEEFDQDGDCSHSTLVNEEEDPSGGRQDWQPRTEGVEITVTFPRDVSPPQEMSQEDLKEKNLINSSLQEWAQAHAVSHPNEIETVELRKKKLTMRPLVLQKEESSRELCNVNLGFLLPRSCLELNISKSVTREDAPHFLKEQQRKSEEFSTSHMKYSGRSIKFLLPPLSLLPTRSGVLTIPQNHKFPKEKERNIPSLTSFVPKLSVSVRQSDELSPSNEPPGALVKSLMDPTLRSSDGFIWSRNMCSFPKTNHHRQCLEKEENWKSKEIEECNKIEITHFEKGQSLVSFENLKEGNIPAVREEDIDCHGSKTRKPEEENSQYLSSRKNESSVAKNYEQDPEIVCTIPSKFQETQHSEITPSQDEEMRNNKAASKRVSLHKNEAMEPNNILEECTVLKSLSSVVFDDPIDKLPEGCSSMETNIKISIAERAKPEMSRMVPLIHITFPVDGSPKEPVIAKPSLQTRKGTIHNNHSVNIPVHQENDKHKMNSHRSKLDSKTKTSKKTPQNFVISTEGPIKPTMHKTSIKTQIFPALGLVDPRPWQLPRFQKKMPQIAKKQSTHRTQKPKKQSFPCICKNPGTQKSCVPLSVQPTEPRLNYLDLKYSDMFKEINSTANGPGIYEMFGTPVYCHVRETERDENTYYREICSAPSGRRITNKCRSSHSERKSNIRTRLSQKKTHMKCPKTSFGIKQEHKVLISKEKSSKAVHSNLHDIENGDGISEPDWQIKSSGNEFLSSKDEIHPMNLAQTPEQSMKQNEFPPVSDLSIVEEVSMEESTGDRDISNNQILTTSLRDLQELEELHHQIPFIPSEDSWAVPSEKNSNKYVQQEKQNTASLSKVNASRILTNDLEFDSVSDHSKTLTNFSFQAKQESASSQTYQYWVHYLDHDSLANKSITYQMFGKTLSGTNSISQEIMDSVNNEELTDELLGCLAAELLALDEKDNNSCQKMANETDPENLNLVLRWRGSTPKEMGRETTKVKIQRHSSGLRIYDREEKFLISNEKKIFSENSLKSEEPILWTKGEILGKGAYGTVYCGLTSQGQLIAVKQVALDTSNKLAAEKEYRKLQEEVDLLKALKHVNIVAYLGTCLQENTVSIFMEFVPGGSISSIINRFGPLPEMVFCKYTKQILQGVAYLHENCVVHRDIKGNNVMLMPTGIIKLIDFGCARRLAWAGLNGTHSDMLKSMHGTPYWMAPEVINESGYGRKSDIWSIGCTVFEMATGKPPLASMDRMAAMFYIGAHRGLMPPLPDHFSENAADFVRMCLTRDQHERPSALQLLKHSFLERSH

For the compound `Cc1ccc(NC(=O)c2cccc(C(F)(F)F)c2)cc1Nc1cc(-c2cccnc2)nc2[nH]ccc12` [HZX-02-059], the remaining binding at 1 µM at PRKX stood at 100%; at CLK2 it was 92%; at LRRK2(G2019S) it was 92%; on PIK3CA(H1047Y) it was 88%; on HIPK1, 74%; in assay [1], 84%. Besides, the remaining binding at 1 µM is 80% on KIT(V559D,T670I); 99% on SGK2; 100% on NEK11; 49% in assay [2]; 100% on TAOK3; 89% on CDKL1. The remaining binding at 1 µM on BRK turned out to be 83%; at RET(V804M), 95%; at IGF1R, 92%; at YSK4, 100%; on ZAK it was 17%; at SNARK, 99%. Besides, the remaining binding at 1 µM was 77% in assay [3]; 100% at DLK; 76% on PIP5K2B; 90% on AMPK-alpha2; 80% on GRK7.

Source of the values: paper PMC8799717, “Pharmacological targeting PIKfyve and tubulin as an effective treatment strategy for double-hit lymphoma” (Cell Death Discovery, 2022).
